Laboratory results reported in PubChem BioAssay AID180 (DTP/NCI, 2004).
Several values for one entry are separate records, joined by “and”; a condition that tells them apart may be missing. Identical values can stand only once.

System: BDF1 mice, Adenocarcinoma 755 s.c., tumor weight T/C
Assay: NCI In Vivo Anticancer Drug Screen. Data for tumor model Adenocarcinoma 755 (subcutaneous) in B6D2F1 (BDF1) mice
Details: endpoint: mean tumor weight, higher = larger tumour
How it was run: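 Compound activity was tested in mice carrying transplanted tumors. Survival or tumor size was measured, and each value is the treated-group measurement divided by that of the vehicle-treated control group (T/C).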

[1] = dose: 30.0 mg/kg/injection, schedule: Q01DX011 (ip), vehicle: carboxymethylcellulose (CMC)
[2] = dose: 60.0 mg/kg/injection, schedule: Q01DX011 (ip), vehicle: carboxymethylcellulose (CMC)
[3] = dose: 120.0 mg/kg/injection, schedule: Q01DX011 (ip), vehicle: carboxymethylcellulose (CMC)
[4] = dose: 240.0 mg/kg/injection, schedule: Q01DX011 (ip), vehicle: carboxymethylcellulose (CMC)
[5] = dose: 25.0 mg/kg/injection, schedule: Q01DX011 (ip), vehicle: methylcellulose (MC)
[6] = dose: 12.5 mg/kg/injection, schedule: Q01DX011 (ip), vehicle: other
[7] = dose: 56.0 mg/kg/injection, schedule: Q01DX011 (ip), vehicle: carboxymethylcellulose (CMC)

## Brc1ncnc2nc[nH]c12
dose: 1.12 mg/kg/injection, schedule: Q01DX011 (ip), vehicle: carboxymethylcellulose (CMC)
  T/C: 99 % of control
dose: 2.25 mg/kg/injection, schedule: Q01DX011 (ip), vehicle: carboxymethylcellulose (CMC)
  T/C: 100 % of control
dose: 4.5 mg/kg/injection, schedule: Q01DX011 (ip), vehicle: carboxymethylcellulose (CMC)
  T/C: 43 % of control
dose: 9.0 mg/kg/injection, schedule: Q01DX011 (ip), vehicle: carboxymethylcellulose (CMC)
  T/C: 50 % of control
dose: 9.37 mg/kg/injection, schedule: Q01DX011 (ip), vehicle: carboxymethylcellulose (CMC)
  T/C: 10 % of control
dose: 18.75 mg/kg/injection, schedule: Q01DX011 (ip), vehicle: carboxymethylcellulose (CMC)
  T/C: 10 % of control
dose: 37.5 mg/kg/injection, schedule: Q01DX011 (ip), vehicle: carboxymethylcellulose (CMC)
  T/C: 2 % of control
dose: 75.0 mg/kg/injection, schedule: Q01DX011 (ip), vehicle: carboxymethylcellulose (CMC)
  T/C: 1 % of control and 6 % of control
dose: 150.0 mg/kg/injection, schedule: Q01DX011 (ip), vehicle: carboxymethylcellulose (CMC)
  T/C: 6 % of control

## Cn1cnc(=N)c2[nH]cnc21
[1]
  T/C: 97 % of control
[2]
  T/C: 93 % of control
[3]
  T/C: 73 % of control
[4]
  T/C: 93 % of control

## Nc1ncnc2c1ncn2CCO
[5]
  T/C: 52 % of control
dose: 50.0 mg/kg/injection, schedule: Q01DX011 (ip), vehicle: methylcellulose (MC)
  T/C: 76 % of control
dose: 100.0 mg/kg/injection, schedule: Q01DX011 (ip), vehicle: methylcellulose (MC)
  T/C: 67 % of control

## NC(=O)c1ccc(NC(=O)CCC(=O)Nc2ccc(C(N)=O)cn2)nc1
dose: 0.25 mg/kg/injection, schedule: Q01DX011 (ip), vehicle: carboxymethylcellulose (CMC)
  T/C: 83 % of control
dose: 0.5 mg/kg/injection, schedule: Q01DX011 (ip), vehicle: carboxymethylcellulose (CMC)
  T/C: 93 % of control
dose: 1.0 mg/kg/injection, schedule: Q01DX011 (ip), vehicle: carboxymethylcellulose (CMC)
  T/C: 80 % of control
dose: 2.0 mg/kg/injection, schedule: Q01DX011 (ip), vehicle: carboxymethylcellulose (CMC)
  T/C: 33 % of control
dose: 2.5 mg/kg/injection, schedule: Q01DX011 (ip), vehicle: carboxymethylcellulose (CMC)
  T/C: 16 % of control
dose: 5.0 mg/kg/injection, schedule: Q01DX011 (ip), vehicle: carboxymethylcellulose (CMC)
  T/C: 7 % of control

## CC(=O)N1CCCCC1
[6]
  T/C: 92 % of control
dose: 25.0 mg/kg/injection, schedule: Q01DX011 (ip), vehicle: other
  T/C: 69 % of control
dose: 50.0 mg/kg/injection, schedule: Q01DX011 (ip), vehicle: other
  T/C: 73 % of control
dose: 100.0 mg/kg/injection, schedule: Q01DX011 (ip), vehicle: other
  T/C: 85 % of control

## CCCCN(C)N=Nc1ccc(S(N)(=O)=O)cc1
dose: 4.0 mg/kg/injection, schedule: Q01DX011 (ip), vehicle: carboxymethylcellulose (CMC)
  T/C: 91 % of control
dose: 8.0 mg/kg/injection, schedule: Q01DX011 (ip), vehicle: carboxymethylcellulose (CMC)
  T/C: 90 % of control and 77 % of control
dose: 31.0 mg/kg/injection, schedule: Q01DX011 (ip), vehicle: carboxymethylcellulose (CMC)
  T/C: 33 % of control
dose: 32.0 mg/kg/injection, schedule: Q01DX011 (ip), vehicle: carboxymethylcellulose (CMC)
  T/C: 108 % of control and 84 % of control
dose: 62.0 mg/kg/injection, schedule: Q01DX011 (ip), vehicle: carboxymethylcellulose (CMC)
  T/C: 42 % of control
dose: 93.0 mg/kg/injection, schedule: Q01DX011 (ip), vehicle: carboxymethylcellulose (CMC)
  T/C: 55 % of control

## CC(=O)OC1C(CO)OC(n2cnc3c(=S)nc[nH]c32)C1OC(C)=O (centres undefined)
dose: 3.75 mg/kg/injection, schedule: Q01DX011 (ip), vehicle: carboxymethylcellulose (CMC)
  T/C: 38 % of control
dose: 7.5 mg/kg/injection, schedule: Q01DX011 (ip), vehicle: carboxymethylcellulose (CMC)
  T/C: 10 % of control
dose: 15.0 mg/kg/injection, schedule: Q01DX011 (ip), vehicle: carboxymethylcellulose (CMC)
  T/C: 5 % of control
[1]
  T/C: 5 % of control and 7 % of control
[2]
  T/C: 7 % of control
[3]
  T/C: 6 % of control

## Nc1nc2n[nH]nc2c(=O)[nH]1
dose: 11.18 mg/kg/injection, schedule: Q01DX011 (ip), vehicle: carboxymethylcellulose (CMC)
  T/C: 80 % of control
[6]
  T/C: 62 % of control and 80 % of control
dose: 13.55 mg/kg/injection, schedule: Q01DX011 (ip), vehicle: carboxymethylcellulose (CMC)
  T/C: 85 % of control
dose: 17.88 mg/kg/injection, schedule: Q01DX011 (ip), vehicle: carboxymethylcellulose (CMC)
  T/C: 98 % of control
dose: 22.35 mg/kg/injection, schedule: Q01DX011 (ip), vehicle: carboxymethylcellulose (CMC)
  T/C: 70 % of control and 76 % of control
dose: 27.1 mg/kg/injection, schedule: Q01DX011 (ip), vehicle: carboxymethylcellulose (CMC)
  T/C: 80 % of control
dose: 29.8 mg/kg/injection, schedule: Q01DX011 (ip), vehicle: carboxymethylcellulose (CMC)
  T/C: 59 % of control
dose: 37.5 mg/kg/injection, schedule: Q01DX011 (sc), vehicle: carboxymethylcellulose (CMC)
  T/C: 11 % of control
dose: 44.7 mg/kg/injection, schedule: Q01DX011 (ip), vehicle: carboxymethylcellulose (CMC)
  T/C: 17 % of control and 33 % of control
dose: 75.0 mg/kg/injection, schedule: Q01DX011 (sc), vehicle: carboxymethylcellulose (CMC)
  T/C: 5 % of control
dose: 89.4 mg/kg/injection, schedule: Q01DX011 (ip), vehicle: carboxymethylcellulose (CMC)
  T/C: 4 % of control and 6 % of control
dose: 108.4 mg/kg/injection, schedule: Q01DX011 (ip), vehicle: carboxymethylcellulose (CMC)
  T/C: 3 % of control and 4 % of control

## CS(=O)(=O)OCCC(=O)NCCCCNC(=O)CCOS(C)(=O)=O
[7]
  T/C: 66 % of control
dose: 56.0 mg/kg/injection, schedule: Q01DX011 (ip), vehicle: methylcellulose (MC)
  T/C: 85 % of control
dose: 113.0 mg/kg/injection, schedule: Q01DX011 (ip), vehicle: carboxymethylcellulose (CMC)
  T/C: 48 % of control
dose: 113.0 mg/kg/injection, schedule: Q01DX011 (ip), vehicle: methylcellulose (MC)
  T/C: 31 % of control
dose: 225.0 mg/kg/injection, schedule: Q01DX011 (ip), vehicle: carboxymethylcellulose (CMC)
  T/C: 12 % of control
dose: 225.0 mg/kg/injection, schedule: Q01DX011 (ip), vehicle: methylcellulose (MC)
  T/C: 8 % of control
dose: 450.0 mg/kg/injection, schedule: Q01DX011 (ip), vehicle: carboxymethylcellulose (CMC)
  T/C: 7 % of control

## Cn1c(=O)c2c(nc(C(=N)SCC(=O)O)n2C)n(C)c1=O
[5]
  T/C: 61 % of control

## CC1CN1P(=S)(N1CCCCC1)N1CC1C (centres undefined)
dose: 25.0 mg/kg/injection, schedule: Q01DX011 (ip), vehicle: carboxymethylcellulose (CMC)
  T/C: 51 % of control
dose: 50.0 mg/kg/injection, schedule: Q01DX011 (ip), vehicle: carboxymethylcellulose (CMC)
  T/C: 150 % of control
[7]
  T/C: 64 % of control
dose: 100.0 mg/kg/injection, schedule: Q01DX011 (ip), vehicle: carboxymethylcellulose (CMC)
  T/C: 121 % of control
dose: 112.0 mg/kg/injection, schedule: Q01DX011 (ip), vehicle: carboxymethylcellulose (CMC)
  T/C: 19 % of control
dose: 200.0 mg/kg/injection, schedule: Q01DX011 (ip), vehicle: carboxymethylcellulose (CMC)
  T/C: 102 % of control

## CC(=O)OCC1OC(n2cnc3c(=O)[nH]cnc32)C(OC(C)=O)C1OC(C)=O (centres undefined)
[1]
  T/C: 55 % of control
[2]
  T/C: 65 % of control
[3]
  T/C: 80 % of control
[4]
  T/C: 67 % of control
dose: 400.0 mg/kg/injection, schedule: Q01DX011 (ip), vehicle: carboxymethylcellulose (CMC)
  T/C: 110 % of control
dose: 600.0 mg/kg/injection, schedule: Q01DX011 (ip), vehicle: carboxymethylcellulose (CMC)
  T/C: 117 % of control

## COC(C(=O)C(O)C(C)O)C1Cc2cc3cc(OC4CC(OC(C)=O)C(OC5CC(O)C(OC)C(C)O5)C(C)O4)cc(O)c3c(O)c2C(=O)C1OC1CC(OC2CC(OC3CC(C)(O)C(OC(=O)C(C)C)C(C)O3)C(O)C(C)O2)C(O)C(C)O1 (centres undefined)
dose: 0.02 mg/kg/injection, schedule: Q01DX011 (ip), vehicle: carboxymethylcellulose (CMC)
  T/C: 93 % of control
dose: 0.04 mg/kg/injection, schedule: Q01DX011 (ip), vehicle: carboxymethylcellulose (CMC)
  T/C: 93 % of control
dose: 0.08 mg/kg/injection, schedule: Q01DX011 (ip), vehicle: carboxymethylcellulose (CMC)
  T/C: 52 % of control
dose: 0.15 mg/kg/injection, schedule: Q01DX011 (ip), vehicle: saline
  T/C: 114 % of control
dose: 0.16 mg/kg/injection, schedule: Q01DX011 (ip), vehicle: carboxymethylcellulose (CMC)
  T/C: 14 % of control and 39 % of control
dose: 0.33 mg/kg/injection, schedule: Q01DX011 (ip), vehicle: saline
  T/C: 66 % of control
dose: 0.66 mg/kg/injection, schedule: Q01DX011 (ip), vehicle: saline
  T/C: 54 % of control
dose: 1.25 mg/kg/injection, schedule: Q01DX011 (ip), vehicle: saline
  T/C: 8 % of control and 11 % of control
dose: 2.5 mg/kg/injection, schedule: Q01DX011 (ip), vehicle: saline
  T/C: 2 % of control and 3 % of control
